The target of test [1] is T1, CR518 (chemotactile receptor 518) (Octopus bimaculoides, UniProt A0A0L8FVQ9).
T1 sequence (A0A0L8FVQ9 21-399): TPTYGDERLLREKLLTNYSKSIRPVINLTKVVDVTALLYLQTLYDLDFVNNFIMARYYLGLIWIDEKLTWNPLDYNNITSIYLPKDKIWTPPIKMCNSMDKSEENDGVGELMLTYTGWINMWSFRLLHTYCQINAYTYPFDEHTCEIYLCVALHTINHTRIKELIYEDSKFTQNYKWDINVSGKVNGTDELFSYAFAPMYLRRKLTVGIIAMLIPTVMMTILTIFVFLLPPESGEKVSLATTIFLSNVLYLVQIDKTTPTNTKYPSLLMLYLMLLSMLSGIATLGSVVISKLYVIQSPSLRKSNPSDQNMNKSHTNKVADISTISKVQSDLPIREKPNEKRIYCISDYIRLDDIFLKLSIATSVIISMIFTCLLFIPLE
The experiment in a line: whole-cell patch clamp dose-response. The class given is cell-based. Background: The patch-clamp technique gives a direct electrical read-out from membranes.

For test [2], the target named is T1, CR518 (chemotactile receptor 518). The test can be described thus: whole-cell patch clamp screen. The class given is cell-based.
Test [3] shares this target. The experiment in a line: whole-cell patch clamp dose-response. It counts as cell-based. This is another data set of the same source.
In test [4] the test system is CR840 (chemotactile receptor 840). The test can be described thus: whole-cell patch clamp dose-response. The class given is cell-based, Octopus bimaculoides.

Where two headings read alike, the source gives them in different places.

Take `Cc1ccc(C(C)C)cc1O` [carvacrol]: the EC50 in test [1] was 204 µM.

For `CC1(C)CCC[C@]2(C)[C@@H](C=O)C(C=O)=CC[C@@H]12` [polygodial], the “whole-cell patch clamp screen (1 mM)” value in test [2] is “CR518 was potently activated by terpenoids, including the physiologically-relevant sesquiterpene polygodial and furanosesquiterpene atractylon”.

As to `CCN(CC)CCCC(C)Nc1ccnc2cc(Cl)ccc12` (stereo not drawn) [chloroquine], the EC50 in test [3] is 92.3 µM; in test [4], 10.3 µM.

In test [1], `C=C(C)[C@@H]1CCC2=CC(=O)C[C@@H](C)[C@]2(C)C1` [nootkatone] had an EC50 of 24.7 µM.

Consider `C=C1CCC[C@]2(C)Cc3occ(C)c3C[C@@H]12` [atractylon], for which, in test [3], the half-maximal effective concentration (EC50) was found to be 29.4 µM.

By EC50 is commonly meant the midpoint of the concentration-response curve. Lower therefore signals higher potency in that assay.

(Values after publication PMC7605239 (Cell, 2020).)
